The values that follow come from US9938240B2, “Fluorinated derivatives of 3-hydroxypyridin-4-ones” (Apotex Technologies Inc., priority 2009, dated 2018).

Data set [1] can be described thus: pKa determination by spectrophotometric titration. The class given is physicochemical. To be noted: for pKa: 0.1 M NaCl solution, read-out: pKa (amine); for Logβ011 / Logβ012 / Logβ013: cumulative ligand protonation; for Logβ011 / Logβ012 / Logβ013 / pKa1(L) / pKa2(L) / pKa3(L): Example 53; for pKa1(L) / pKa2(L) / pKa3(L): ligand, spectrophotometric titration. As to the method:
The pKa values of ligands can be determined by spectrophotometric titration when both the conjugated acid and base absorb in the UV-visible region. In a typical experiment, the sample solution was prepared by the following method: Apo7041 stock solution (12.74 mg) was weighed into a 10 mL volumetric flask, and 0.1 M NaCl solution was added to volume. The mixture was sonicated and voltexed to give a clear colorless solution. The concentration of Apo7041 of this stock solution is 5.1×10^−3 M.
Apo7041 sample solution: 727 μL of the above stock solution was transferred into a 50 mL volumetric flask by using a 1000 μL digital pipet, and 0.1 M NaCl was added to volume. The resulting solution was vortexed to mix to give a sample solution. The concentration of Apo7041 of this sample solution is 7.4×10^−5 M. 20 mL of the sample solution was transferred into a 35 mL beaker by using a 10 mL digital pipet. The sample solution was circulated between the beaker and the flow cell using a sipper system.
The sample solution was titrated against standard hydrochloric acid solutions at 22° C. to reach pH 1.11. After each addition of acid the solution was allowed to equilibrate until a constant pH reading was reached. The pH and the UV-Vis spectrum were recorded for each measurement. The solution was titrated until there was no obvious change in the spectra after several subsequent additions of acid. Thus, 30 measurements were recorded.
The resulting data set was then analyzed using pHAB (Peter Gans, University of Leeds). The pKa values were obtained using the model: LH+H^+⇄LH2^+, and LH2^++H^+⇄LH3^2+ (pKa3). Thus, Apo7041 has pKa2=3.51, and pKa3=1.23 as determined spectrophotometrically.
The pKa values of Apo7323 were determined by spectrophotometric titration using an Agilent 8453 UV-visible spectroscopy system (see Example 26).

Data set [2] concerns SH-SY5Y human neuroblastoma cells. Conditions: for CC2 (cytotoxic concentration): H2O2-treated cells, viability below 80%; for CC1 (cytotoxic concentration): absence of H2O2, viability below 80%. The method, boiled down:
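SH-SY5Y cells were treated with a range of compound concentrations, with or without 50 μM H2O2, in serum-free medium for 16–22 h. Viability was measured by MTT and expressed relative to cells receiving neither H2O2 nor compound. Runs without H2O2 assessed cytotoxicity.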

Data set [3] is described as follows: Oral cassette dosing PK/BBB studies. Conditions: for BBB penetration: cassette dosing BBB studies in rats, in words; for AUC brain* / Kp / AUC: oral cassette dosing, male Sprague-Dawley rats; for AUC brain* / AUC: AUC normalized to 1 mg/kg dose; for Kp / AUC: rat; for Kp: brain and plasma, read-out: AUC brain/AUC plasma; for AUC: plasma. The class given is in vivo, male Sprague-Dawley rats. As to the method: In-vivo pharmacokinetic (PK) and blood brain barrier (BBB) studies were conducted in male Sprague-Dawley rats using cassette dosing via oral administration. […] No. 15, pp. 652-658.

Data set [4] can be described thus: pKa determination by potentiometric titration. It is filed as physicochemical. Conditions: 0.1M aqueous NaCl/MeOH, 1/1, v/v.
Data set [5] is described as follows: Stepwise formation constants for Zn-ligand system by potentiometric titration. The class given is physicochemical. To be noted: for pZn^2+: pH 7.4, ligand 10 μM, metal 1 μM. As to the method: In a typical experiment, the sample solution was prepared by the following method: Apo7041 (126.3 mg, 0.50 mmol) was weighed into a 50 mL volumetric flask, and about 35 mL of a mixed solvent (0.1 M NaCl aqueous:MeOH, 1:1, v:v) was added. The mixture was sonicated for 10 min to give a clear colorless solution. The zinc stock solution (atomic absorption standard, Aldrich, 6.64 mL, 0.10 mmol) was pipetted into the solution followed by addition of sodium hydroxide solution (6.000 N, 300 μL). More of the mixed solvent was added to volume and the resulting solution was vortexed to mix. The molar ratio between the total zinc and the total Apo7041 was 1/5. 40 mL of the solution was transferred into a T70 titration cell by using a 10 mL digital pipet. A 6.000 N sodium hydroxide solution (160 μL) was added, and the pH (11.95) of the solution was recorded. The solution was allowed to equilibrate at 22° C. for 5 min.
The solution was then titrated against a 6.000 N hydrochloric acid solution at 22° C. by using a Mettler Toledo T70 autotitrator, until the pH reached 1.5. The volume of acid added and the pH reading were recorded. Thus, 523 measurements were taken for this experiment.
The data set of pH vs. acid volume for Zn-Apo7041 system was analyzed using Hyperquad 2000 software (version 2.1, Peter Gans, University of Leeds). The formation constants for Zn-Apo7041 system were optimized using the model shown in the first column of the table 29D. The results are shown in the second and third column.
pM^n+ is defined as −log [M(H2O)m]^n+ at physiological conditions, i.e.: pH 7.4, a ligand concentration of 10 μM, and a metal concentration of 1 μM. To calculate pM^n+ for a MLn system, βn and pKa values are needed (βn are the formation constants for M^n++n L^−⇄MLn; pKa are the equilibrium constants for L^−+n H^+⇄LHn^(n-1)+). The pM^n+ is calculated using the HySS software (HYSS© 2000 Protonic Software).

[6] abbreviates: spectrophotometric, 0.1 M NaCl, 22° C.
[7] abbreviates: 0.1M aqueous NaCl/MeOH, 1/1, v/v.
Setting [8] is: 0.1M aqueous NaCl/MeOH, 1/1, v/v, listed as drawing 104.

For `O=c1ccn(CC(F)(F)F)c(CN2CCOCC2)c1O` [Apo7323, 3-hydroxy-2-(morpholinomethyl)-1-(2,2,2-trifluoroethyl)pyridin-4(1H)-one], the pKa – broadly, the negative logarithm of the acid dissociation constant – in data set [1] (amino group of the ligand) is 4.2. In addition, in data set [1], the Logβ011 is listed as 9.2, the Logβ012 is on record as 13.4, the Logβ013 was found to be 14.2 and the “pKa1(L)” value is 9.2. Besides, in data set [1], the “pKa2(L)” value was 4.2 and the “pKa3(L)” value was determined as 0.8. Besides, in data set [2], the “CC2 (cytotoxic concentration)” value worked out at 320 µM and the “CC1 (cytotoxic concentration)” value turned out to be 160 µM.

On to `CN(C)C(c1c(O)c(=O)ccn1C)C(F)(F)F` (stereo not drawn) [Apo7041, 2-[1-(dimethylamino)-2,2,2-trifluoroethyl]-3-hydroxy-1-methylpyridin-4(1H)-one], for which, in data set [1] (amino group of the ligand), the pKa was 3.5 and the “pKa (amine)” value was determined as 3.51. Moreover, in data set [1] (setting [6]), the pKa2 was found to be 3.51 and the pKa3 is recorded as 1.23. Besides, in data set [3], the BBB penetration result is “less favorable than deferiprone in BBB penetration”, the “AUC brain*” value is 0.45 µg·h/mL, the Kp came to 0.75 and the AUC (usually concentration integrated over time) came out at 600 ng·h/mL. In data set [4], the pKa1 worked out at 10.1, the “pKa1 + pKa2” value was 13.3 and the pKa2 result is “pKa2 = 3.2”. In data set [2], the “CC2 (cytotoxic concentration)” value is 320 µM and the “CC1 (cytotoxic concentration)” value was found to be 160 µM. Moreover, in data set [5] (setting [7]), the “Log β111 (Zn2+)” value is 13.1, the “Log β120 (Zn2+)” value is 13.2 and the “Log β121 (Zn2+)” value worked out at 19.6. Also, in data set [5] (setting [8]), the “Log β111 (Zn2+)” value is listed as “Logβ111 = 13.1”, the “Log β120 (Zn2+)” value is given as “Logβ120 = 13.2” and the “Log β121 (Zn2+)” value is “Logβ121 = 19.6”. Further, the “pZn^2+” value in data set [5] is “pZn^2+ = 6.0”.

As for `CNC(c1cn(C)c(C)c(O)c1=O)C(F)(F)F` (stereo not drawn) [Apo7056, 3-Hydroxy-1,2-dimethyl-5-[2,2,2-trifluoro-1-(methylamino)ethyl]pyridin-4(1H)-one], in data set [1], the Logβ011 was 9.8, the Logβ012 is on record as 14.7, the Logβ013 is on record as 15.1 and the “pKa1(L)” value was determined as 9.8. In addition, in data set [1], the “pKa2(L)” value turned out to be 4.9 and the “pKa3(L)” value worked out at 0.4. In data set [3], the “AUC brain*” value was found to be 0.77 µg·h/mL, the Kp is 0.56 and the AUC turned out to be 1380 ng·h/mL.

In the case of `CN(C)Cc1c(O)c(=O)ccn1CC(F)(F)F` [Apo7067, 2-[(dimethylamino)methyl]-3-hydroxy-1-(2,2,2-trifluoroethyl)pyridin-4(1H)-one], the pKa in data set [1] (amino group of the ligand) turned out to be 6.1. In data set [1], the Logβ011 is 9.6, the Logβ012 was 15.7, the Logβ013 was 16.5 and the “pKa1(L)” value is 9.6. In data set [1], the “pKa2(L)” value is 6.1 and the “pKa3(L)” value worked out at 0.8. Moreover, in data set [3], the BBB penetration entry is “readily penetrates the BBB”, the “AUC brain*” value was determined as 0.74 µg·h/mL, the Kp stood at 1.5 and the area under the curve (AUC) was 500 ng·h/mL. In addition, in data set [2], the “CC2 (cytotoxic concentration)” value is more than 640 µM and the “CC1 (cytotoxic concentration)” value was found to be 160 µM.

As for `Cc1c(O)c(=O)c(C(N2CCOCC2)C(F)(F)F)cn1C` (stereo not drawn) [Apo7435, 3-hydroxy-1,2-dimethyl-5-(2,2,2-trifluoro-1-morpholinoethyl)pyridin-4(1H)-one], the pKa in data set [1] (amino group of the ligand) is 2.5. Moreover, in data set [1], the Logβ011 is given as 9.8, the Logβ012 is 12.3, the Logβ013 amounted to 12.3 and the “pKa1(L)” value is 9.8. Also, in data set [1], the “pKa2(L)” value was 2.5 and the “pKa3(L)” value came out at 0.0. In data set [2], the “CC2 (cytotoxic concentration)” value is 320 µM and the “CC1 (cytotoxic concentration)” value is 80 µM.

For `Cc1c(O)c(=O)ccn1C` [Deferiprone, 3-hydroxy-1,2-dimethylpyridin-4(1H)-one, reference compound], in data set [4], the pKa1 entry is reported as “pKa1 = 10.6” and the pKa2 result was “pKa2 = 4.0”. Besides, in data set [5] (setting [7]), the “Log β120 (Zn2+)” value came to 15.0, the “Logβ1 (Zn2+)” value is on record as “Logβ1 = 8.1” and the “Logβ2 (Zn2+)” value was “Logβ2 = 15.0”. The “pZn^2+” value in data set [5] is on record as “pZn^2+ = 6.3”.
